In paper PMC10046369, “Low-Affinity/High-Selectivity Dopamine Transport Inhibition Sufficient to Rescue Cognitive Functions in the Aging Rat” (Biomolecules, 2023):

Columns and labels:
Assay in all cases: biochemical
Set-up in all cases: KINOMEscan competition binding panel, per cent of control
Conditions in all cases: read-out: %Ctrl @ 2800nM
[1] = biological target: EPHB2 (Homo sapiens, UniProt P29323)
How it was run: (§1)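 Values are expressed as percent of control, calculated as ((test − positive control)/(negative control − positive control)) × 100, so lower numbers mean stronger hits. Binding was measured by KINOMEscan competition assay in a 450-kinase human panel including disease mutants, using the contractor's validated protocol.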

[2] = biological target: RIOK3 (Homo sapiens, UniProt O14730)
How it was run: as §1

[3] = biological target: T1, CDC2L2 (Homo sapiens, UniProt Q9UQ88)
T1 construct: gene CDK11A
How it was run: as §1

[4] = biological target: T2, p38-gamma (Homo sapiens, UniProt P53778)
T2 construct: gene MAPK12
How it was run: as §1

[5] = biological target: T3, MEK4 (Homo sapiens, UniProt P45985)
T3 construct: gene MAP2K4
How it was run: as §1

[6] = biological target: MARK1 (Homo sapiens, UniProt Q9P0L2)
How it was run: as §1

[7] = biological target: FLT3 (Homo sapiens, UniProt P36888)
How it was run: as §1

[8] = biological target: EPHB1 (Homo sapiens, UniProt P54762)
How it was run: as §1

[9] = biological target: ALK(C1156Y) (Homo sapiens, UniProt Q9UM73, C1156Y)
How it was run: as §1

[10] = biological target: KIT(V559D,V654A) (Homo sapiens, UniProt P10721, V559D/V654A)
How it was run: as §1

[11] = biological target: FLT3(R834Q) (Homo sapiens, UniProt P36888, R834Q)
How it was run: as §1

[12] = biological target: PIK3CA(M1043I) (Homo sapiens, UniProt P42336, M1043I)
How it was run: as §1

[13] = biological target: FER (Homo sapiens, UniProt P16591)
How it was run: as §1

[14] = biological target: CDK8 (Homo sapiens, UniProt P49336)
How it was run: as §1

[15] = biological target: T4, RPS6KA4(Kin.Dom.1-N-terminal) (Homo sapiens, UniProt O75676)
T4 construct: Kin.Dom.1-N-terminal
How it was run: as §1

[16] = biological target: TESK1 (Homo sapiens, UniProt Q15569)
How it was run: as §1

[17] = biological target: T5, TRKC (Homo sapiens, UniProt Q16288)
T5 construct: gene NTRK3
How it was run: as §1

[18] = biological target: PRKD1 (Homo sapiens, UniProt Q15139)
How it was run: as §1

[19] = biological target: TGFBR1 (Homo sapiens, UniProt P36897)
How it was run: as §1

[20] = biological target: T6, RIPK5 (Homo sapiens, UniProt Q6XUX3)
T6 construct: gene DSTYK
How it was run: as §1

[21] = biological target: BMPR1B (Homo sapiens, UniProt O00238)
How it was run: as §1

[22] = biological target: T7, ABL1(F317I)-phosphorylated (Homo sapiens, UniProt P00519, F317I)
T7 construct: phosphorylated
How it was run: as §1

[23] = biological target: EGFR(L747-E749del, A750P) (Homo sapiens, UniProt P00533, A750P/DEL747-749)
How it was run: as §1

[24] = biological target: MET (Homo sapiens, UniProt P08581)
How it was run: as §1

[25] = biological target: LCK (Homo sapiens, UniProt P06239)
How it was run: as §1

Sequence of MET (P08581 whole entry): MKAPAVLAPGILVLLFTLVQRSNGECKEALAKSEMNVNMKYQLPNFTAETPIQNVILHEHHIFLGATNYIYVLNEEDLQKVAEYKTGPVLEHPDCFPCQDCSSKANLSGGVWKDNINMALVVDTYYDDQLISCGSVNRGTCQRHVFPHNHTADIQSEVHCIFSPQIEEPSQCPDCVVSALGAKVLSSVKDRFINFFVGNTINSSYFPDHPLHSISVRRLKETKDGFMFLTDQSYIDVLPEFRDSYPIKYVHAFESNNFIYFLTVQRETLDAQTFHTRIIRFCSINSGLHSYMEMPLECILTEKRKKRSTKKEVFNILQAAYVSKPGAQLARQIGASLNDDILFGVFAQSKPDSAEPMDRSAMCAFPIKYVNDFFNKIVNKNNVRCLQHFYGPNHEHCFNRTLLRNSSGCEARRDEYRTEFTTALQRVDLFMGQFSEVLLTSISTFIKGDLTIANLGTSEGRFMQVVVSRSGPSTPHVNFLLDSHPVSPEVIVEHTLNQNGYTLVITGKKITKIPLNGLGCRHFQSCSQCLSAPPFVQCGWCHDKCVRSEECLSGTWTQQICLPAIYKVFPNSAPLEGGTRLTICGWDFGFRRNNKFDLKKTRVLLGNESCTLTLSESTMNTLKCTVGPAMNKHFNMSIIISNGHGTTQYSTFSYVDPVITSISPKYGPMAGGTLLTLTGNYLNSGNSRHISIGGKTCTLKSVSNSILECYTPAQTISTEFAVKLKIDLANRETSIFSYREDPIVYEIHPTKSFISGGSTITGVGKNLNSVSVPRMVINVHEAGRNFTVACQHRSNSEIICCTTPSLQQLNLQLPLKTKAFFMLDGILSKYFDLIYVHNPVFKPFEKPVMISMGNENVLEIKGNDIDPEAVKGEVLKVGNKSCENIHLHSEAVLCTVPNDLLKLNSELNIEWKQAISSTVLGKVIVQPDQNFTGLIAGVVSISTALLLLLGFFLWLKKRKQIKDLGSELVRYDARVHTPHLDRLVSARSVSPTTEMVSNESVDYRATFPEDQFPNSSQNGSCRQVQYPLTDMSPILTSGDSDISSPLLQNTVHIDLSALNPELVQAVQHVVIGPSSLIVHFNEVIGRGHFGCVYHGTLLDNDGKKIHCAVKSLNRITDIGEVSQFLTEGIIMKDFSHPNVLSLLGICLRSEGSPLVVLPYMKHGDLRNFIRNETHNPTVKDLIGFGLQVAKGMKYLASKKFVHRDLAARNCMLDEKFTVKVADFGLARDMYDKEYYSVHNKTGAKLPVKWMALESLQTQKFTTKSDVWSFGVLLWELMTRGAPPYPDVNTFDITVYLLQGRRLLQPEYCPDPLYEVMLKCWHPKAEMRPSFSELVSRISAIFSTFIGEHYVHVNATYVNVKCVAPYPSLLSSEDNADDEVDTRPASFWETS
Sequence of EPHB1 (P54762 whole entry): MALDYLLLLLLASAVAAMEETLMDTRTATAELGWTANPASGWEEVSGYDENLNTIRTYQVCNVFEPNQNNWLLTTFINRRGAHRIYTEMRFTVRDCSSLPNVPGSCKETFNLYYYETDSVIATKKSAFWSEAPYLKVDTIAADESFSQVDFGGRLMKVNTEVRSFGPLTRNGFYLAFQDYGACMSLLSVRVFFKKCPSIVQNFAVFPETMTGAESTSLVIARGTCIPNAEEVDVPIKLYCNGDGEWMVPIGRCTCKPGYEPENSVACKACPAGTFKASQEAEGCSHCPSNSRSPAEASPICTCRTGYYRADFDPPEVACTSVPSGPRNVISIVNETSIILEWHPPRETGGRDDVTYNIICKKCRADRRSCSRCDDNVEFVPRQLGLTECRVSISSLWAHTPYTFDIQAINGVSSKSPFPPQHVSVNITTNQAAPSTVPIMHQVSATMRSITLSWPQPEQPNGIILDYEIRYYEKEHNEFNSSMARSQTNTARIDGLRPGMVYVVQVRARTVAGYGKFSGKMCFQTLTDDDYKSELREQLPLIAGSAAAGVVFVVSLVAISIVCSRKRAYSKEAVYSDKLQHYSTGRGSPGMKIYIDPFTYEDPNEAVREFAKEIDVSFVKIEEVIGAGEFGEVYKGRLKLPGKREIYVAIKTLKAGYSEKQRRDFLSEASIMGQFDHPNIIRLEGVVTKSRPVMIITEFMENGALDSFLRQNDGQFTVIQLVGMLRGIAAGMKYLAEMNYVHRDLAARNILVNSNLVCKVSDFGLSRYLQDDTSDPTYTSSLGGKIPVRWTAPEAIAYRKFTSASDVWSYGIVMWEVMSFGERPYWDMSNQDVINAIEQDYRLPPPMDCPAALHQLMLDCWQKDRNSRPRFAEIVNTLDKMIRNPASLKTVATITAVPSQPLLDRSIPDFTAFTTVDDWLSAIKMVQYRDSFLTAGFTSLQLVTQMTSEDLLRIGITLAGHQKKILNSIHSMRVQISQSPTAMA
T1 sequence (Q9UQ88 whole entry): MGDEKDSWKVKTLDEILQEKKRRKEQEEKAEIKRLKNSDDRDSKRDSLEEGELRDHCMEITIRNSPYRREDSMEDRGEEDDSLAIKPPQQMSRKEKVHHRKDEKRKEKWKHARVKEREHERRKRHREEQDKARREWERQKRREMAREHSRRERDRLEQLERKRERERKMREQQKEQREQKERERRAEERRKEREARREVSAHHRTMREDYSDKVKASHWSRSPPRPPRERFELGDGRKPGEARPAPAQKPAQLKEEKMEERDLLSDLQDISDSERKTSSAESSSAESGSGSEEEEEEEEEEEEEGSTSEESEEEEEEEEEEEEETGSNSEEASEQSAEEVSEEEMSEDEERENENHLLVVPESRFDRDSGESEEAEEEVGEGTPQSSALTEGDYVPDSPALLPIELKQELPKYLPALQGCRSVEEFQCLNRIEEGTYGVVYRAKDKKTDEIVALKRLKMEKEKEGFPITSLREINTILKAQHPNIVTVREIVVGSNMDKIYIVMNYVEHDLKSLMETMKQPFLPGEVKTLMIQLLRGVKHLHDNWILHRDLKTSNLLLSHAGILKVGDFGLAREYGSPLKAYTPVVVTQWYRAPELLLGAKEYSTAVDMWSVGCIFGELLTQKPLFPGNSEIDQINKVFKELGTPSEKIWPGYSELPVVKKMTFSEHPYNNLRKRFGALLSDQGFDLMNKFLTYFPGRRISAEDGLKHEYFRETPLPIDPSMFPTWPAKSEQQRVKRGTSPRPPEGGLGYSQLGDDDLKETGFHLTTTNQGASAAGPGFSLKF
Sequence of FER (P16591 whole entry): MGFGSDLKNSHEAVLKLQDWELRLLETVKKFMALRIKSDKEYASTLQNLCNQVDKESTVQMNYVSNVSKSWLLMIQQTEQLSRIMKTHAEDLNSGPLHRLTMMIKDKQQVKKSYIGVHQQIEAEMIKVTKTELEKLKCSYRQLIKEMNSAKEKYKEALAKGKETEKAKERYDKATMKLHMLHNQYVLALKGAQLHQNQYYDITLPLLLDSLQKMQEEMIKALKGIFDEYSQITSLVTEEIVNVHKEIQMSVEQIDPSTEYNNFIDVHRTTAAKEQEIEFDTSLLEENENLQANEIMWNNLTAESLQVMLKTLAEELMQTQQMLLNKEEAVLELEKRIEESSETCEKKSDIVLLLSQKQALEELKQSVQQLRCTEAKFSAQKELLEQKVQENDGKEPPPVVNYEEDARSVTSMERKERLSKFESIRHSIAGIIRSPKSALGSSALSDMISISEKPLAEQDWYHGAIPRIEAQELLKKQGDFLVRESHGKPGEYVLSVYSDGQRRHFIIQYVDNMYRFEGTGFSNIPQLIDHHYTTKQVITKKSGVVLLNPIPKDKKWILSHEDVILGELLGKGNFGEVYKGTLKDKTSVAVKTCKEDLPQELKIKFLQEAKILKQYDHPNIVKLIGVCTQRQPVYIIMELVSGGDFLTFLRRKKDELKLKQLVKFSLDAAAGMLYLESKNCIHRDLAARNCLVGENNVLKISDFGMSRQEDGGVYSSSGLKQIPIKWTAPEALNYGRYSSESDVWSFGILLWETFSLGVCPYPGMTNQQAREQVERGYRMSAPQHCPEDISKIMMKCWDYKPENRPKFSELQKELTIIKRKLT
T4 sequence (O75676 whole entry): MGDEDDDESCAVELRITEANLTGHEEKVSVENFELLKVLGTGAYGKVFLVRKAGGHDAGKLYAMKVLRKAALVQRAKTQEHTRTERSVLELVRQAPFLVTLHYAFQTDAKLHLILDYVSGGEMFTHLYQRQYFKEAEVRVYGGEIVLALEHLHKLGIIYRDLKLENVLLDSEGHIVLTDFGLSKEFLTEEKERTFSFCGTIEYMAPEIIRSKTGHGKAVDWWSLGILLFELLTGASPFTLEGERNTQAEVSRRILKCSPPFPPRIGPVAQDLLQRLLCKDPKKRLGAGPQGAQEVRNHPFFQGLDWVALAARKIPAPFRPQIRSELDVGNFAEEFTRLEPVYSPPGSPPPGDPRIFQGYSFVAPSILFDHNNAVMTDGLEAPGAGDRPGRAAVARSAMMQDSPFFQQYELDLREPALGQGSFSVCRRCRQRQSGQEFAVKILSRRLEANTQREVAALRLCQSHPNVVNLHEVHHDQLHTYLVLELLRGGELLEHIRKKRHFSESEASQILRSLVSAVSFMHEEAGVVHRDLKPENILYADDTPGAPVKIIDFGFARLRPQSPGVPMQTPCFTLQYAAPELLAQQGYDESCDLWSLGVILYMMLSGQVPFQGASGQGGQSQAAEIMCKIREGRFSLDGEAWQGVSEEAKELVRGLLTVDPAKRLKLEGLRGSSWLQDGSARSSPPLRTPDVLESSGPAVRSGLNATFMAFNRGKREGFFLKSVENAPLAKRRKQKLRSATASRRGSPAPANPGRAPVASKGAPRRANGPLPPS

[O-][S@@+](Cc1cncs1)C(c1ccccc1)c1ccccc1 [S-CE-123, (S)-5-((Benzhydrylsulfinyl)Methyl)Thiazole]
remaining binding at 2.8 µM [1]: 89% | remaining binding at 2.8 µM [2]: 97% | remaining binding at 2.8 µM [3]: 98% | remaining binding at 2.8 µM [4]: 100% | remaining binding at 2.8 µM [5]: 100% | remaining binding at 2.8 µM [6]: 93% | remaining binding at 2.8 µM [7]: 96% | remaining binding at 2.8 µM [8]: 100% | remaining binding at 2.8 µM [9]: 100% | remaining binding at 2.8 µM [10]: 100% | remaining binding at 2.8 µM [11]: 90% | remaining binding at 2.8 µM [12]: 63% | remaining binding at 2.8 µM [13]: 100% | remaining binding at 2.8 µM [14]: 96% | remaining binding at 2.8 µM [15]: 100% | remaining binding at 2.8 µM [16]: 96% | remaining binding at 2.8 µM [17]: 100% | remaining binding at 2.8 µM [18]: 92% | remaining binding at 2.8 µM [19]: 86% | remaining binding at 2.8 µM [20]: 95% | remaining binding at 2.8 µM [21]: 100% | remaining binding at 2.8 µM [22]: 92% | remaining binding at 2.8 µM [23]: 93% | remaining binding at 2.8 µM [24]: 99% | remaining binding at 2.8 µM [25]: 100%
